Legend:
Conditions in all cases: TZM-bl cells, MOI 0.02, 48 h; virus infectivity read-out; NNRTI pocket
[1] = biological target: T1, HIV-1 reverse transcriptase (RT), HIV-1NL4-3 (Human immunodeficiency virus type 1 (NEW YORK-5 ISOLATE), UniProt P12497); assay: single-cycle pseudovirus infection, luciferase; assay type: cell-based; set-up: gene gag-pol; mature RT p66/p51 heterodimer cut from Gag-Pol polyprotein; […]; tested in TZM-bl cells
[2] = biological target: T1, HIV-1 reverse transcriptase (RT), HIV-1NL4-3; assay: single-cycle pseudovirus infection, luciferase; assay type: cell-based; set-up: gene gag-pol; mature RT p66/p51 heterodimer cut from Gag-Pol polyprotein; […]; tested in TZM-bl cells; remark: listed apart in the source
[3] = biological target: T1, HIV-1 reverse transcriptase (RT), HIV-1NL4-3; set-up: gene gag-pol
[4] = biological target: T1, HIV-1 reverse transcriptase (RT), HIV-1NL4-3; assay: single-cycle pseudovirus infection, luciferase; assay type: cell-based; set-up: gene gag-pol; mature RT p66/p51 heterodimer cut from Gag-Pol polyprotein; […]; tested in TZM-bl cells; remark: listed apart in the source

Cc1cc(C)c(Nc2ccnc(Nc3ccc(C#N)cc3)n2)c(C)c1 [DAP, dapivirine]
DAP EC50 [1]: 0.26 ± 0.13 nM

Cn1c(Cn2ccc(C(F)(F)F)c(Oc3cc(Cl)cc(C#N)c3)c2=O)n[nH]c1=O [DOR, doravirine]
DOR EC50 [2]: 1.4 ± 0.28 nM

O=C1Nc2ccc(Cl)cc2[C@@](C#CC2CC2)(C(F)(F)F)O1 [EFV, efavirenz]
EFV EC50 [3]: 0.65 ± 0.30 nM

Cc1cc(C#N)cc(C)c1Oc1nc(Nc2ccc(C#N)cc2)nc(N)c1Br [ETR, etravirine]
ETR EC50 [4]: 0.83 ± 0.23 nM

— paper PMC9364801, “APOBEC3 selects V179I in HIV-1 reverse transcriptase to provide selective advantage for non-nucleoside reverse transcriptase inhibitor-resistant mutants” (Frontiers in virology, 2022)
